One experiment concerns the target T1, human Fatty Acid Synthase (Homo sapiens, UniProt P49327).
T1 construct: made in house
The experiment in a line: Human FAS enzyme assay (decrease in NADPH fluorescence). The class given is biochemical. The following applies: % inhibition at a concentration of 100 μmolar. The procedure, abridged: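 In-house human FAS was preincubated with compound and NADPH for 15 min at room temperature in 0.1 M Tris pH 7.5 with EDTA, glutathione and BSA. Malonyl CoA and acetyl CoA (500 μM and 150 μM in the added mix) were then added for 60 min. IC50 came from time-zero-subtracted NADPH fluorescence (340/460 nm).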
T1 sequence (P49327 whole entry): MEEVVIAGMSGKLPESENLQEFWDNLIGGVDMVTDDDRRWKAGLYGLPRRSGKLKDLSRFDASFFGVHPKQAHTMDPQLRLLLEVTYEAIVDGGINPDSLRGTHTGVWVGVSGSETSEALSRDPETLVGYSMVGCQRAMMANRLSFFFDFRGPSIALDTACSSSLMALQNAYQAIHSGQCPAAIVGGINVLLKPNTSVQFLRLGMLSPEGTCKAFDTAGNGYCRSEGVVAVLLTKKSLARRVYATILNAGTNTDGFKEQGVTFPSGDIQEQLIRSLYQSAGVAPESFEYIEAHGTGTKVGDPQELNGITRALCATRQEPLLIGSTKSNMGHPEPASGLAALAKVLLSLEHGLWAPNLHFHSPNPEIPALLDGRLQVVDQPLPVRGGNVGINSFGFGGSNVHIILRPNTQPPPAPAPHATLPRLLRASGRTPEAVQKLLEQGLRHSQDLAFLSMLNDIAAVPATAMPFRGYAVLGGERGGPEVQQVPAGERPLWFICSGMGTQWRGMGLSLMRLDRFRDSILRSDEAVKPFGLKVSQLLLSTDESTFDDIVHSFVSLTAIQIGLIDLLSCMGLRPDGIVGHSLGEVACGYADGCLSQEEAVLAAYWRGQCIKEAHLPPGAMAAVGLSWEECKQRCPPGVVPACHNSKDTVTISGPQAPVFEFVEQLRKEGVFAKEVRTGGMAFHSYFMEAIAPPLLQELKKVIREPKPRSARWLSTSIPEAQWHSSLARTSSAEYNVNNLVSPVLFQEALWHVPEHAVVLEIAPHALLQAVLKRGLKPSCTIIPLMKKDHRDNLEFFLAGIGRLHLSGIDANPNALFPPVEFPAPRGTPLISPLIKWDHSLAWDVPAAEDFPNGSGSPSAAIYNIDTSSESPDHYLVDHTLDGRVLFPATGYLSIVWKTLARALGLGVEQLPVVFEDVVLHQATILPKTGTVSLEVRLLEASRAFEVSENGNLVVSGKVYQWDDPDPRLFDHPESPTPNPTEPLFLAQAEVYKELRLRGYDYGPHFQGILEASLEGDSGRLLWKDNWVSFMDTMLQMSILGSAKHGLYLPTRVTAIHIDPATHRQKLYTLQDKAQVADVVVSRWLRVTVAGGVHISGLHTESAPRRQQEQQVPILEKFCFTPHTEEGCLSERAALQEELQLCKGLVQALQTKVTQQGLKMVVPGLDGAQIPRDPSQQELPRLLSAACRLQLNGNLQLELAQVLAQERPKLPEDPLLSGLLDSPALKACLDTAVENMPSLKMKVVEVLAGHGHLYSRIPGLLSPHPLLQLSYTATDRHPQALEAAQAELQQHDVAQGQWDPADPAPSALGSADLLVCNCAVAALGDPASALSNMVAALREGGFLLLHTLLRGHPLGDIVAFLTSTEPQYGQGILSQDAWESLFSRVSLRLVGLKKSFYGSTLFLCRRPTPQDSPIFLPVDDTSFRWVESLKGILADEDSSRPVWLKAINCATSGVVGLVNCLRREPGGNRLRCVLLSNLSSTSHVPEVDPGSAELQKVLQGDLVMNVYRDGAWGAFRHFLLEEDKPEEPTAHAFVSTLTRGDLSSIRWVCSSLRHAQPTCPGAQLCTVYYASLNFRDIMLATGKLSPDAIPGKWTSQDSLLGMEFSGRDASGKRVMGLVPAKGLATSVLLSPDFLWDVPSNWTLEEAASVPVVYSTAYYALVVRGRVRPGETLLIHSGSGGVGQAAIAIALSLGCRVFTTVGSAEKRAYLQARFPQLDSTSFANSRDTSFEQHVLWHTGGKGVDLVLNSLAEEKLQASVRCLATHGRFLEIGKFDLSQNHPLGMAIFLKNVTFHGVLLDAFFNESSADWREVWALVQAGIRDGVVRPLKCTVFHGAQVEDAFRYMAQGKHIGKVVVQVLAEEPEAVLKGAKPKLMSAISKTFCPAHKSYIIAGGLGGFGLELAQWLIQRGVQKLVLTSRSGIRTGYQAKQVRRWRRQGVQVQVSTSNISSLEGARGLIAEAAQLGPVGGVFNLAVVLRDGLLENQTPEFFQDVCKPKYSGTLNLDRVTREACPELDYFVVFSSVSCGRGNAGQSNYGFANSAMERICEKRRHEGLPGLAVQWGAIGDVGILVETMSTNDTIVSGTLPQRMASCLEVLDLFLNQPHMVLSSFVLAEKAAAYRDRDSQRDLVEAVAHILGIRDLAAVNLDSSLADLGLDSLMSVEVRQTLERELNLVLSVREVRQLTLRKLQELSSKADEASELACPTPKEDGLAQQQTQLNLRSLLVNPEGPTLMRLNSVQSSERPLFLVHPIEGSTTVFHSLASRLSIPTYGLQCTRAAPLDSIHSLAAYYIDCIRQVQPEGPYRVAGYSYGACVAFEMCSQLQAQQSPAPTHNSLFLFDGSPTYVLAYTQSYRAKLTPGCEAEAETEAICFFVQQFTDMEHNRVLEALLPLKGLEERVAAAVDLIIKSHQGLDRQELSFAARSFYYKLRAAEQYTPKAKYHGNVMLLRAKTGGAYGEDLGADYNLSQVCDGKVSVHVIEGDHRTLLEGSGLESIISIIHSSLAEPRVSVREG
Regarding `Cc1ccc(C(=O)N2CCC(c3ccc(C#N)cc3)CC2)cc1NC(=O)NCC(F)(F)F` [Example 168, 1-[5-[4-(4-cyanophenyl)piperidine-1-carbonyl]-2-methyl-phenyl]-3-(2,2,2-trifluoroethyl)urea], the inhibition at 100 µM was 84.6%.
Consider `Cc1ccc(C(=O)N2CCC(c3ccc(C#N)cc3)CC2)cc1NC(=O)NCCN1CCNC1=O` [Example 135, 1-[5-[4-(4-cyanophenyl)piperidine-1-carbonyl]-2-methyl-phenyl]-3-[2-(2-oxoimidazolidin-1-yl)ethyl]urea], for which the inhibition at 100 µM stood at 81.1%.
Still for that read-out and setting: to `Cc1ccc(C(=O)N2CCC(c3ccc(C#N)cc3)CC2)cc1NC(=O)NCCNS(=O)(=O)C(C)C` [Example 122, 1-[5-[4-(4-cyanophenyl)piperidine-1-carbonyl]-2-methyl-phenyl]-3-[2-(propan-2-ylsulfonylamino)ethyl]urea] belongs 96.1%.
Same read-out and setting: to `COCCN1CCC(NC(=O)Nc2cc(C(=O)N3CCC(c4ccc(C#N)cc4)CC3)ccc2C)CC1` [Example 147, 1-[5-[4-(4-cyanophenyl)piperidine-1-carbonyl]-2-methyl-phenyl]-3-[1-(2-methoxyethyl)-4-piperidyl]urea] belongs 79.5%; to `Cc1ccc(C(=O)N2CCC(c3ccc(C#N)cc3)CC2)cc1NC(=O)NC1CCCC1` [Example 15, 1-[5-[4-(4-cyanophenyl)piperidine-1-carbonyl]-2-methyl-phenyl]-3-cyclopentyl-urea], 91.3%.
As for `CC(C)NC(=O)Nc1cc(C(=O)N2CCC(c3ccc(C#N)cc3)CC2)ccc1F` [Example 11, 3-[5-[4-(4-cyanophenyl)piperidine-1-carbonyl]-2-fluoro-phenyl]-1-propan-2-yl-urea], the inhibition at 100 µM was determined as 68.4%.
In the case of `CCCNC(=O)CCCNC(=O)Nc1cc(C(=O)N2CCC(c3ccc(C#N)cc3)CC2)ccc1C` [Example 235, 4-[[5-[4-(4-cyanophenyl)piperidine-1-carbonyl]-2-methyl-phenyl]carbamoylamino]-N-propyl-butanamide], the inhibition at 100 µM is 95.8%.
On the same count and under the same terms, to `Cc1ccc(NC(=O)N(C)Cc2ccccc2)cc1C(=O)N1CCC(c2ccc(C#N)cc2)CC1` [Example 24, 1-benzyl-3-[3-[4-(4-cyanophenyl)piperidine-1-carbonyl]-4-methyl-phenyl]-1-methyl-urea] belongs 78.1%; to `C#CCNC(=O)Nc1cc(C(=O)N2CCC(c3ccc(C#N)cc3)CC2)ccc1C` [Example 43, 1-[5-[4-(4-cyanophenyl)piperidine-1-carbonyl]-2-methyl-phenyl]-3-prop-2-ynyl-urea], 88.3%.
The same measure, in the same setting: to `Cc1ccc(C(=O)N2CCC(c3ccc(C#N)cc3)CC2)cc1NC(=O)NC(C)c1ccc(S(C)(=O)=O)cc1` (stereo not drawn) [Example 98, 1-[5-[4-(4-cyanophenyl)piperidine-1-carbonyl]-2-methyl-phenyl]-3-[1-(4-methylsulfonylphenyl)ethyl]urea] belongs 91.9%; to `Cc1ccc(C(=O)N2CCC(c3ccc(C#N)cc3)CC2)cc1NC(=O)NC12CC3CC(CC(O)(C3)C1)C2` [Example 197, 1-[5-[4-(4-cyanophenyl)piperidine-1-carbonyl]-2-methyl-phenyl]-3-(3-hydroxy-1-adamantyl)urea], 84.4%; to `Cc1ccc(C(=O)N2CCC(c3ccc(C#N)cc3)CC2)cc1NC(=O)N[C@H]1CC[C@H](O)CC1` [Example 193, 1-[5-[4-(4-cyanophenyl)piperidine-1-carbonyl]-2-methyl-phenyl]-3-(4-hydroxycyclohexyl)urea], 85.8%.
Take `Cc1ccc(C(=O)N2CCC(c3ccc(C#N)cc3)CC2)cc1NC(=O)NCC1COCCO1` (stereo not drawn) [Example 160, 1-[5-[4-(4-cyanophenyl)piperidine-1-carbonyl]-2-methyl-phenyl]-3-(1,4-dioxan-2-ylmethyl)urea]: the inhibition at 100 µM amounted to 94.9%.
In the case of `Cc1ccc(NC(=O)NCc2cccc(C#N)c2)cc1C(=O)N1CCC(c2ccc(C#N)cc2)CC1` [Example 47, 3-[(3-cyanophenyl)methyl]-1-[3-[4-(4-cyanophenyl)piperidine-1-carbonyl]-4-methyl-phenyl]urea], the inhibition at 100 µM was 77.4%.
Still for that read-out and setting: to `Cc1ccc(C(=O)N2CCC(c3ccccc3)CC2)cc1NC(=O)NC(C)C` [Example 391, 1-[2-methyl-5-(4-phenylpiperidine-1-carbonyl)phenyl]-3-propan-2-ylurea] belongs 71%.
The same measure, in the same setting: to `Cc1ccc(C(=O)N2CCC(c3ccc(C#N)cc3)CC2)cc1NC(=O)NCc1cccc(S(C)(=O)=O)c1` [Example 247, 1-[5-[4-(4-cyanophenyl)piperidine-1-carbonyl]-2-methyl-phenyl]-3-[(3-methylsulfonylphenyl)methyl]urea] belongs 101%.
As for `Cc1ccc(C(=O)N2CCC(c3ccc(C#N)cc3)CC2)cc1NC(=O)NC1CCN(C(=O)C(C)C)CC1` [Example 283, 1-[5-[4-(4-cyanophenyl)piperidine-1-carbonyl]-2-methyl-phenyl]-3-[1-(2-methylpropanoyl)-4-piperidyl]urea], the inhibition at 100 µM is 101%.
Still for that read-out and setting: to `COCCNC(=O)Nc1cc(C(=O)N2CCC(c3ccc(C#N)cc3)CC2)c(C)cc1C` [Example 412, 1-[5-[4-(4-cyanophenyl)piperidine-1-carbonyl]-2,4-dimethylphenyl]-3-(2-methoxyethyl)urea] belongs 89.9%; to `CC(C)NC(=O)Nc1cc(C(=O)N2CCC(c3ccc(C#N)cc3)CC2)ccc1CS(C)(=O)=O` [Example 403, 3-[5-[4-(4-cyanophenyl)piperidine-1-carbonyl]-2-(methylsulfonylmethyl)phenyl]-1-propan-2-ylurea], 79.9%.
The same measure, in the same setting: to `Cc1ccc(NC(=O)N[C@H]2CC[C@H](O)CC2)cc1C(=O)N1CCC(c2ccc(C#N)cc2)CC1` [Example 49, 1-[3-[4-(4-cyanophenyl)piperidine-1-carbonyl]-4-methyl-phenyl]-3-trans-(4-hydroxycyclohexyl)urea] belongs 98.1%.
On the same count and under the same terms, to `Cc1ccc(C(=O)N2CCC(c3ccc(C#N)cc3)CC2)cc1NC(=O)NCc1ccc(S(C)(=O)=O)cc1` [Example 243, 1-[5-[4-(4-cyanophenyl)piperidine-1-carbonyl]-2-methyl-phenyl]-3-[(4-methylsulfonylphenyl)methyl]urea] belongs 99.9%.
In the case of `Cc1ccc(C(=O)N2CCC(c3ccc(C#N)cc3)CC2)cc1NC(=O)NCCNC(=O)c1cnoc1C` [Example 119, N-[2-[[5-[4-(4-cyanophenyl)piperidine-1-carbonyl]-2-methyl-phenyl]carbamoylamino]ethyl]-5-methyl-1,2-oxazole-4-carboxamide], the inhibition at 100 µM is 89.2%.
For the compound `Cc1ccc(C(=O)N2CCC(c3ccc(C#N)cc3)CC2)cc1NC(=O)NCc1ccncn1` [Example 266, 1-[5-[4-(4-cyanophenyl)piperidine-1-carbonyl]-2-methyl-phenyl]-3-(pyrimidin-4-ylmethyl)urea], the inhibition at 100 µM amounted to 103%.
Take `Cc1ccc(C(=O)N2CCC(c3ccc(C#N)cc3)CC2)cc1NC(=O)NCCCCO` [Example 185, 1-[5-[4-(4-cyanophenyl)piperidine-1-carbonyl]-2-methyl-phenyl]-3-(4-hydroxybutyl)urea]: the inhibition at 100 µM was 92.6%.
The same measure, in the same setting: to `Cc1ccc(C(=O)N2CCC(c3ccc(C#N)cc3)CC2)cc1NC(=O)NCc1cccc(N2CCOCC2)n1` [Example 358, 1-[5-[4-(4-cyanophenyl)piperidine-1-carbonyl]-2-methyl-phenyl]-3-[(6-morpholin-4-ylpyridin-2-yl)methyl]urea] belongs 93.2%.
For the compound `C#CCNC(=O)Nc1cc(C(=O)N2CCC(c3ccc(C#N)cc3)CC2)c(C)cc1C` [Example 413, 1-[5-[4-(4-cyanophenyl)piperidine-1-carbonyl]-2,4-dimethylphenyl]-3-prop-2-ynylurea], the inhibition at 100 µM worked out at 101%.
`Cc1ccc(C(=O)N2CCC(c3ccc(C#N)cc3)CC2)cc1NC(=O)NCCc1c[nH]cn1` [Example 139, 1-[5-[4-(4-cyanophenyl)piperidine-1-carbonyl]-2-methyl-phenyl]-3-[2-(1H-imidazol-4-yl)ethyl]urea]: the inhibition at 100 µM is 87%.
Consider `COCCNC(=O)Nc1cc(C(=O)N2CCC(c3ccc(C#N)cc3)CC2)ccc1C` [Example 152, 1-[5-[4-(4-cyanophenyl)piperidine-1-carbonyl]-2-methyl-phenyl]-3-(2-methoxyethyl)urea], for which the inhibition at 100 µM is 95.1%.
Same read-out and setting: to `Cc1ccc(C(=O)N2CCC(c3ccc(C#N)cc3)CC2)cc1NC(=O)NCCC(=O)Nc1ccccn1` [Example 170, 3-[[5-[4-(4-cyanophenyl)piperidine-1-carbonyl]-2-methyl-phenyl]carbamoylamino]-N-pyridin-2-yl-propanamide] belongs 94.6%; to `Cc1ccc(C(=O)N2CCC(c3ccc(C#N)cc3)CC2)cc1NC(=O)NCc1cc(=O)[nH]o1` [Example 136, 1-[5-[4-(4-cyanophenyl)piperidine-1-carbonyl]-2-methyl-phenyl]-3-[(3-oxo-1,2-oxazol-5-yl)methyl]urea], 80.9%; to `CCC(=O)NCCN(C)C(=O)Nc1cc(C(=O)N2CCC(c3ccc(C#N)cc3)CC2)ccc1C` [Example 353, N-[2-[[5-[4-(4-cyanophenyl)piperidine-1-carbonyl]-2-methyl-phenyl]carbamoyl-methyl-amino]ethyl]propanamide], 78.4%.

The experiment is the same for the next values; noted with them: FAS enzyme assay, IC50 from fitted sigmoid curves.
With `Cc1ccc(C(=O)N2CCC(c3ccc(C#N)cc3)CC2)cc1NC(=O)N(C1CC1)C1CCS(=O)(=O)C1` (stereo not drawn) [3-[5-[4-(4-cyanophenyl)piperidine-1-carbonyl]-2-methylphenyl]-1-cyclopropyl-1-(1,1-dioxothiolan-3-yl)urea], the “IC50, inhibition of human Fatty Acid Synthase” value was “do not have IC50s in the range of about 0.001 μM to about 30 μM”.
For `Cc1ccc(C(=O)N2CCC(c3ccccc3C#N)CC2)cc1NC(=O)NC(C)C` [1-[5-[4-(2-cyanophenyl)piperidine-1-carbonyl]-2-methylphenyl]-3-propan-2-ylurea], the “IC50, inhibition of human Fatty Acid Synthase” value was “do not have IC50s in the range of about 0.001 μM to about 30 μM”.

For orientation: inhibition means the change of the read-out against control, counted positive when it falls.

The values are drawn from patent publication US20090118332A1, “Therapeutic Agents - 551” (AstraZeneca AB, priority 2006, published 2009).
